Measured values reported in ChEMBL document CHEMBL2086381, “Identification of 4,5-dihydro-4-hydroxygeldanamycins as shunt products of geldanamycin biosynthesis” (J Nat Prod, 2012).
pIC50: −log10 of the molar value.

Tested on: HepG2
Assay: Cytotoxicity against human HepG2 cells
Assay type: functional, cell-based

SMILES	pIC50
COC1=C2C[C@@H](C)C[C@H](OC)[C@H](O)[C@@H](C)/C=C(\C)[C@H](OC(N)=O)[C@@H](OC)C[C@H](O)/C=C(\C)C(=O)NC(=CC1=O)C2=O	4.98
COC1=C2C[C@@H](C)C[C@H](OC)[C@H](O)[C@@H](C)/C=C(\C)[C@H](OC(N)=O)[C@@H](OC)C[C@@H](O)/C=C(\C)C(=O)NC(=CC1=O)C2=O	4.97
COC1=C2C[C@@H](C)C[C@H](OC)[C@H](O)[C@@H](C)/C=C(\C)[C@H](OC(N)=O)[C@@H](OC)/C=C\C=C(/C)C(=O)NC(=CC1=O)C2=O [GELDANAMYCIN]	6.43
